In patent US5045566A, “Novel imidate insecticides” (ICI Americas Inc., priority 1989, dated 1991):

Legend:
Format in all cases: in vivo
[1] = test system: Housefly [Musca domestica]; assay: Housefly contact mortality in dishes (HF), 48 hours; details: μg of test compound per 25 female flies
Method in brief: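 LC50 (μg compound per 25 female flies) derives from dosage-mortality curves of 48 h kill. Flies, females 1-2 days old, were held 25 per cage over a dish coated with dried acetone deposit, starting at 100 μg per cage and descending.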

[2] = test system: Black Bean Aphid [Aphis fabae (Scop.)]; assay: Black bean aphid spray test on nasturtium (BBA), 48 hours; details: percent of test compound in sprayed solution
Method in brief: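 LC50, given as percent test compound in the sprayed liquid, was calculated from dosage-mortality curves using concentrations from 0.05% downward. Sprays in 50:50 acetone-water went to runoff on ~5 cm nasturtiums carrying 25-50 aphids of mixed ages, one day after infestation. Deaths were counted 48 h later under greenhouse conditions.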

[3] = test system: Tobacco Budworm [Heliothis virescens (Fabricius)] eggs; assay: Tobacco budworm eggs (TBW-E); details: percent in solution; 2-day old eggs
Method in brief: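 Mortality of dipped eggs served as read-out, recorded after untreated controls hatched and began feeding. Treatments used acetone solutions from 0.1% downward, with eggs incubated at 78° F; LC50 is expressed as percent of compound in the solution.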

[4] = test system: Cabbage Looper [Trichoplusia ni (Hubner)]; assay: Cabbage looper leaf dip (CL), 3-5 days; details: percent in solution, second-instar larvae
Method in brief: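 Steps: dilute compound in 50-50 acetone-water from 0.1% downward; immerse cotyledon pieces 2-3 s and dry; place in humid petri dishes with five second-instar larvae; record mortality at 3-5 days. Dosage-mortality curves yield LC50 as percent in solution.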

[5] = test system: Aster Leafhopper [Macrosteles fascifrens (Stal)]; assay: Aster leafhopper on dipped oat seedlings (LH), 48 hours; details: percent in solution, adults/nymphs
Method in brief: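 LC50 values, given as percent of test compound in the dip solution, were derived from dosage-mortality curves over concentrations from 0.05% downward. Mortality was counted 48 hours after ten leafhopper adults/nymphs were enclosed on treated seedlings. The seedlings were oats, about 10 cm tall, briefly dipped in 50-50 acetone-water.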

[6] = test system: Maize weevil [Sitophilus zeamais (Motschulsky)]; assay: Maize weevil on dipped corn seeds (MW), 48 hours; details: percent in solution, adult weevils
Method in brief: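 LC50, given as percent of compound in dipping solution, comes from dosage-mortality curves over concentrations descending from 0.01%. Four corn seeds soaked 2-3 s in 50:50 acetone:water solution were dried and held with 10 adult weevils, about 25° C, mortality read after 48 h.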

[7] = test system: Rice water weevil [Lissorhoptrus oryzophilus (Kuschel)]; assay: Rice water weevil topical (RWW), 48 hours; details: μg of test compound per weevil, female adults
Protocol: The compounds in Tables 1 and 2 above were tested for insecticidal activity using the following testing procedures. LC50 values, based on the results of these tests and calculated according to dosage-mortality curves, are expressed in Table 3.
Rice water weevil [Lissorhoptrus oryzophilus (Kuschel)]:
Test compounds were diluted in acetone. Droplets (1 ul) of test solutions were applied to the ventral abdomens of ten female adult weevils. The treated weevils were placed in containers with wet cotton balls and rice foliage. The containers were covered and kept at a temperature of about 25° C. Mortality was recorded after 48 hours. Test concentrations ranged from […] down to that at which 50% mortality occurred. The LC50 values are expressed below in Table 3 under the heading "RWW" in terms of μg of test compound per weevil.

[8] = test system: Tobacco Budworm [Heliothis virescens (Fabricius)] larvae; assay: Tobacco budworm larvae, contact (TBW-C), 5 days; details: percent in solution, second-instar larvae
Method in brief: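 Cotton cotyledons dipped 2–3 s in compound in 50-50 acetone-water, dried, then infested with 5 second-instar larvae and held 5 days at high humidity. Mortality scored; LC50 from dosage-mortality curves, expressed as percent compound in solution, concentrations from 0.1% downward.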

[9] = test system: Beet Armyworm (Spodoptera exigua); assay: Beet armyworm leaf dip (BAW), 5 days; details: percent in solution; second-instar larvae; five days
Method in brief: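 Five second-instar larvae per dish fed on dried sugar beet leaves previously dipped 2–3 s in acetone-water (1:1) test solutions up to 0.1%. Kept at high humidity, with deaths counted after five days; LC50 as % in solution via dosage-mortality curves.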

Structure (SMILES) | LC50 HF [1] [µg] | LC50 BBA [2] [%] | LC50 TBW E (eggs) [3] [%] | LC50 CL [4] [%] | LC50 LH [5] [%] | LC50 MW [6] [%] | LC50 RWW [7] [µg] | LC50 TBW C (contact) [8] [%] | LC50 BAW [9] [%]
CC(C)C(=Nc1ccc(C(F)(F)F)cc1)OCc1cccc(Oc2ccccc2)c1 [Compound 68] | 37 | 0.0003 | 0.009 | 0.006 | 0.0001 | > 0.01 | 0.15 |  | 
CCC(=Nc1ccc(F)c(Cl)c1)OCc1cccc(Oc2ccccc2)c1 [Compound 85] | 7 | 0.0017 | > 0.1 | 0.004 | 0.003 | > 0.01 | > 2.5 |  | 
CC(C)C(=Nc1ccc(F)c(Cl)c1)OCc1cccc(Oc2cccc(F)c2)c1 [Compound 125] | 12 | 0.05 | 0.025 | 0.0007 | > 0.05 | > 0.01 | > 2.5 |  | 
CC(C)C(=Nc1ccc(F)c(Cl)c1)OCc1cccc(Oc2ccc(F)cc2F)c1 [Compound 191] | 29 | 0.001 | 0.04 | 0.00023 | > 0.05 | 0.004 | > 2.5 |  | 
CC(C)C(=Nc1c(F)c(F)c(F)c(F)c1F)OCc1cccc(Oc2ccc(F)cc2)c1 [Compound 198] | 52 |  | > 0.1 | 0.0005 | 0.05 | 0.003 | > 2.5 |  | 
CC(C)C(=Nc1ccc(Cl)c(Cl)c1)OCc1ccc(F)c(Oc2ccc(F)cc2)c1 [Compound 289] | 10 | 0.0003 | 0.006 | 0.00007 | 0.0003 | > 0.01 | 0.082 |  | 
CC(C)C(=Nc1ccc(F)c(F)c1)OCc1ccc(F)c(Oc2ccc(Cl)cc2)c1 [Compound 295] | 7.8 | 0.0003 | 0.01 | 0.00004 | 0.0001 | 0.0053 | > 2.5 | 0.0005 | 
CC(C)C(=Nc1ccc(Cl)c(Cl)c1)OCc1ccc(F)c(Oc2ccc(Cl)cc2)c1 [Compound 296] | 38 | 0.0003 | 0.025 | 0.00025 | 0.0003 |  | 0.14 | 0.00045 | 
CC(C)C(=Nc1ccc(F)c(Br)c1)OCc1ccc(F)c(Oc2ccc(Cl)cc2)c1 [Compound 298] | 13 |  | 0.015 | 0.0001 | 0.0001 | 0.008 | > 2.5 | 0.0008 | 
CC(C)C(=Nc1ccc(F)c(C(F)(F)F)c1)OCc1ccc(F)c(Oc2ccccc2)c1 [Compound 300] | 14 | 0.0003 | 0.024 | 0.0003 | 0.00002 | 0.01 | 0.075 | 0.001 | 
CC(C)C(=Nc1ccc(F)c(Cl)c1F)OCc1ccc(F)c(Oc2ccc(F)cc2)c1 [Compound 330] | 5 | 0.0001 | 0.037 | 0.00012 | < 0.05 | 0.001 | 0.06 | 0.00035 | 
CC(C)C(=Nc1ccc(OC(F)(F)F)cc1)OCc1ccc(F)c(Oc2ccccc2)c1 [Compound 338] | 26 | 0.0003 | 0.01 | 0.000065 |  | 0.0053 | 0.044 | 0.00037 | 
CC(C)C(=Nc1ccc(Br)cc1)OCc1ccc(F)c(Oc2ccc(Cl)cc2)c1 [Compound 378] | < 100 | 0.0008 | 0.02 | 0.00034 |  | > 0.01 | > 2.5 |  | 
CC(C)C(=Nc1ccc(Br)c(Cl)c1)OCc1cccc(Oc2ccc(Cl)cc2)c1 [Compound 380] | > 100 | 0.004 | > 0.1 | > 0.1 |  | > 0.01 | > 2.5 |  | 
CC(C)C(=Nc1ccc(Br)c(Cl)c1)OCc1ccc(F)c(Oc2ccc(Cl)cc2)c1 [Compound 381] | < 100 | 0.002 | 0.018 | 0.00092 |  | > 0.01 | > 2.5 |  | 
CC(C)C(=Nc1ccc(Br)c(Cl)c1)OCc1ccc(F)c(Oc2ccc(F)cc2)c1 [Compound 382] | < 100 | 0.0003 | 0.027 | 0.00029 |  | > 0.01 | > 2.5 |  | 
CC(C)C(=Nc1cccc(Br)c1)OCc1ccc(F)c(Oc2ccccc2)c1 [Compound 387] | < 100 | 0.0006 | 0.05 | 0.0012 |  | > 0.01 | > 2.5 |  | 
CC(C)C(=Nc1ccc(Cl)cc1)OCc1ccc(F)c(Oc2ccc(Cl)cc2)c1 [Compound 391] | < 100 | 0.0006 | 0.035 | 0.00029 |  | > 0.01 | > 2.5 |  | 
C=C(C)C(=Nc1ccc(C(F)(F)F)cc1)OCc1ccc(F)c(Oc2ccccc2)c1 [Compound 431] | 9.8 | 0.0003 | 0.025 | 0.00017 |  | 0.0037 | 0.084 |  | 
CC(C)C(=Nc1ccc(C(F)(F)F)c(Br)c1)OCc1ccc(F)c(Oc2ccc(Cl)cc2)c1 [Compound 433] | < 100 | 0.0003 | 0.02 | 0.00017 |  | 0.005 | 0.078 |  | 
CC(C)C(=Nc1ccc(F)c(Cl)c1F)OCc1ccc(F)c(Oc2ccccc2)c1 [Compound 451] | 3.6 | 0.001 | > 0.1 | 0.0001 | 0.0002 | 0.0051 | 0.065 | 0.00025 | 
CC(C)C(=Nc1ccc(Cl)c(OCC(F)(F)F)c1)OCc1ccc(F)c(Oc2ccc(Cl)cc2)c1 [Compound 452] | > 100 | 0.0003 | < 0.1 | 0.0017 |  | > 0.01 | 0.1 |  | 
CC(C)C(=Nc1ccc(F)c(Cl)c1)OCc1cccc(Oc2ccc(F)cc2)n1 [Compound 461] | 6 | 0.001 | 0.01 | 0.00008 |  | 0.0075 | > 2.5 |  | 0.0035
